Legend:
Assay in all cases: relative viability (nuclei count vs DMSO), 5 days (fraction); higher = more cells survive
PAC-1 + Palbociclib = compound: C=CCc1cccc(/C=N/NC(=O)CN2CCN(Cc3ccccc3)CC2)c1O [PAC-1] + CC(=O)c1c(C)c2cnc(Nc3ccc(N4CCNCC4)cn3)nc2n(C2CCCC2)c1=O [Palbociclib] (partner 0.5 µM)
Summary of the method: (§1)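 Values are medians from duplicate plates. Each reflects relative viability, defined as the nuclei count of treated wells over that of vehicle wells. Lung cancer cell lines in 1536-well plates were pin-tool dosed one day after seeding with one drug alone or with a fixed anchor-drug dose plus five library-drug doses (not always all listed) in √10 steps, then fixed, stained and imaged at 4× after 5 days.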

PAC-1 + Vorinostat = compound: C=CCc1cccc(/C=N/NC(=O)CN2CCN(Cc3ccccc3)CC2)c1O [PAC-1] + O=C(CCCCCCC(=O)Nc1ccccc1)NO [Vorinostat] (partner 1 µM)
Summary of the method: as §1

Ibrutinib + OSI-027 = compound: C=CC(=O)N1CCC[C@@H](n2nc(-c3ccc(Oc4ccccc4)cc3)c3c(N)ncnc32)C1 [Ibrutinib] + COc1cccc2cc(-c3nc([C@H]4CC[C@H](C(=O)O)CC4)n4ncnc(N)c34)[nH]c12 [OSI-027] (partner 0.5 µM)
Summary of the method: as §1

BMX-IN-1 + Palbociclib = compound: C=CC(=O)Nc1cc(-n2c(=O)ccc3cnc4ccc(-c5ccc(NS(C)(=O)=O)cc5)cc4c32)ccc1C [BMX-IN-1] + CC(=O)c1c(C)c2cnc(Nc3ccc(N4CCNCC4)cn3)nc2n(C2CCCC2)c1=O [Palbociclib] (partner 0.5 µM)
Summary of the method: as §1

Cell Line	relative viability (PAC-1 + Palbociclib; first compound 0.02 µM)	relative viability (PAC-1 + Palbociclib; first compound 0.06325 µM)	relative viability (PAC-1 + Palbociclib; first compound 0.2 µM)	relative viability (PAC-1 + Palbociclib; first compound 2 µM)	relative viability (PAC-1 + Vorinostat; first compound 0.02 µM)	relative viability (PAC-1 + Vorinostat; first compound 0.06325 µM)	relative viability (PAC-1 + Vorinostat; first compound 0.2 µM)	relative viability (PAC-1 + Vorinostat; first compound 2 µM)	relative viability (Ibrutinib + OSI-027; first compound 0.005 µM)	relative viability (Ibrutinib + OSI-027; first compound 0.01581 µM)	relative viability (Ibrutinib + OSI-027; first compound 0.05 µM)	relative viability (Ibrutinib + OSI-027; first compound 0.1581 µM)	relative viability (Ibrutinib + OSI-027; first compound 0.5 µM)	relative viability (BMX-IN-1 + Palbociclib; first compound 0.02 µM)	relative viability (BMX-IN-1 + Palbociclib; first compound 0.2 µM)	relative viability (BMX-IN-1 + Palbociclib; first compound 0.6325 µM)	relative viability (BMX-IN-1 + Palbociclib; first compound 2 µM)
NCI-H460	0.148	0.162	0.129	0.248	0.755	0.75	0.642	0.707	0.731	0.53	0.626	0.566	0.823	0.131	0.195	0.213	0.149
NCI-H520	0.21	0.256	0.179	0.268	0.57	0.722	0.687	0.678	0.221		0.212	0.258	0.241	0.254	0.218	0.218	0.219
NCI-H522	0.866	0.984	0.962	1.11	0.902	0.846	0.941	0.862	0.656	0.693	0.692	0.597	0.648	0.841	1.14	1.02	0.86
NCI-H647	0.288	0.37	0.35	0.409	0.28	0.67	0.706	0.514		0.542	0.671	0.841	0.812	0.436	0.384	0.377	0.416
NCI-H650	0.317	0.296	0.39	0.342	0.494	0.36	0.442	0.395	0.515	0.481	0.518	0.621	0.539	0.293	0.332	0.331	0.353
NCI-H661	0.439	0.445	0.399	0.392	0.786	0.784	0.743	0.676	0.702	0.674	0.476	0.698	0.423	0.388	0.39	0.421	0.398
NCI-H727	0.516	0.597	0.681	0.714	1.09	1.1	1.06	1.13	0.506	0.591	0.674		0.577	0.611	0.672	0.625	0.592
NCI-H838	0.239	0.227	0.22	0.229	0.68	0.72	0.782	0.745	0.36	0.405	0.387	0.399	0.481	0.241	0.198	0.222	0.24
NCI-H1355	0.43	0.39	0.412	0.421	0.61	0.625	0.572	0.665	0.29	0.388	0.382	0.347	0.403	0.394	0.392	0.399	0.404
NCI-H1395	0.624	0.648	0.593	0.572	0.704	0.747	0.784	0.623	0.602	0.617	0.612	0.5	0.781	0.702	0.62	0.572	0.588
NCI-H1437	0.298	0.35	0.355	0.307	0.831	0.816	0.717	0.563	0.718	0.846	0.941	0.913	0.878	0.326	0.294	0.354	0.328
NCI-H1648	0.299	0.243	0.26	0.228	0.49	0.42	0.431	0.463	0.243	0.288	0.278	0.256	0.306	0.251	0.256	0.286	0.31
NCI-H1650	0.334	0.375	0.333	0.274	0.507	0.672	0.52	0.418	0.554	0.506	0.452	0.59	0.482	0.307	0.313	0.32	0.333
NCI-H1651	0.525	0.536	0.547	0.499	0.544	0.531	0.489	0.588	0.624	0.663	0.792	0.685	0.768	0.598	0.559	0.511	0.533
NCI-H1666	0.605	0.643	0.676	0.632	1.08	1.03	1	1.09	0.89	0.747	0.737	0.847	0.621	0.64	0.672	0.606	0.628
NCI-H1734	0.307	0.328	0.297	0.355	0.825	0.792	0.767	0.895	0.448	0.528	0.611	0.665	0.564	0.37	0.375	0.386	0.329
NCI-H1755	0.473	0.444	0.453	0.468	0.777	0.787	0.774	0.718	0.636	0.552	0.79	0.81	0.777	0.394	0.439	0.509	0.422
NCI-H1793	0.307	0.324	0.271	0.302	0.653	0.814	0.741	0.894		0.238	0.243	0.207	0.219	0.38	0.35	0.285	0.307
NCI-H1915	0.502	0.535	0.49	0.518	0.507	0.506	0.427	0.562	0.557	0.619	0.606	0.482	0.682	0.54	0.543	0.555	0.538

Cell Line	relative viability (PAC-1 + Palbociclib; first compound 0.02 µM)	relative viability (PAC-1 + Palbociclib; first compound 0.06325 µM)	relative viability (PAC-1 + Palbociclib; first compound 0.2 µM)	relative viability (PAC-1 + Palbociclib; first compound 2 µM)	relative viability (PAC-1 + Vorinostat; first compound 0.02 µM)	relative viability (PAC-1 + Vorinostat; first compound 0.06325 µM)	relative viability (PAC-1 + Vorinostat; first compound 0.2 µM)	relative viability (PAC-1 + Vorinostat; first compound 2 µM)	relative viability (Ibrutinib + OSI-027; first compound 0.005 µM)	relative viability (Ibrutinib + OSI-027; first compound 0.01581 µM)	relative viability (Ibrutinib + OSI-027; first compound 0.05 µM)	relative viability (Ibrutinib + OSI-027; first compound 0.1581 µM)	relative viability (Ibrutinib + OSI-027; first compound 0.5 µM)	relative viability (BMX-IN-1 + Palbociclib; first compound 0.02 µM)	relative viability (BMX-IN-1 + Palbociclib; first compound 0.2 µM)	relative viability (BMX-IN-1 + Palbociclib; first compound 0.6325 µM)	relative viability (BMX-IN-1 + Palbociclib; first compound 2 µM)
NCI-H1944	0.272	0.347	0.374	0.371	0.537	0.555	0.542	0.642	0.331	0.33	0.329	0.339	0.331	0.35	0.357	0.327	0.288
NCI-H1975	0.629	0.605	0.52	0.725	0.71	0.713	0.765	0.77	0.681	0.624	0.498	0.692	0.357	1	0.655	0.685	0.698
NCI-H1993	0.647	0.656	0.757	0.646	0.821	0.895	0.658	0.652	0.574	0.566	0.584	0.552	0.692	0.706	0.683	0.646	0.55
NCI-H2009	0.203	0.231	0.236	0.239	0.669	0.685	0.732	0.741	0.522	0.631	0.585	0.729	0.804	0.182	0.212	0.207	0.254
NCI-H2023	0.343	0.353	0.355	0.33	0.741	0.605	0.495	0.474	0.28	0.315	0.349	0.504	0.375	0.48	0.389	0.386	0.381
NCI-H2085	0.487	0.462	0.428	0.504	0.791	0.789	0.737	0.822	0.502	0.627	0.663	0.556	0.562	0.473	0.438	0.484	0.46
NCI-H2087	0.241	0.241	0.285	0.214	0.678	0.665	0.722	0.858	0.407	0.504	1.08		0.542	0.214	0.229	0.252	0.257
NCI-H2126	0.335	0.369	0.38	0.341	0.733	0.785	0.803	0.763		0.59	0.537	0.537	0.632	0.379	0.345	0.363	0.322
NCI-H2170	0.417	0.39	0.376	0.343	0.894	0.809	0.795	0.775	0.48	0.587	0.459	0.822	0.272	0.426	0.421	0.447	0.373
NCI-H2228	1.03	0.921	0.804	0.797	0.699	0.932	0.546	0.504	0.511		0.478	0.481	0.509	0.948	0.878	0.608	0.785
NCI-H2342	0.531	0.561	0.54	0.564	0.733	0.659	0.802	0.739	0.462	0.566	0.494	0.532	0.505	0.578	0.519	0.51	0.568
NCI-H2347	0.499	0.435	0.477	0.414	0.589	0.593	0.606	0.657		0.383	0.374	0.302	0.57	0.443	0.406	0.458	0.393
NCI-H2405	0.53	0.502	0.502	0.509	1.05	1.12	1.14	1.15	0.54	0.627	0.63	0.662	0.638	0.574	0.585	0.584	0.542
NCI-H3122	0.188	0.179	0.198	0.214	1.01	0.972	0.787	0.83	0.895	0.921	0.955	0.671	1.32	0.193	0.204	0.174	0.164
PC-3 [JPC-3]	0.567	0.502	0.535	0.514	0.82	0.915	1.06	0.832	0.635	0.7	0.619	0.84	0.584	0.544	0.598	0.546	0.521
PC-14	0.586	0.504	0.487	0.606	0.816	0.764	0.629	0.743	0.71	0.689	0.641	0.907	0.554	0.583	0.478	0.58	0.47
RERF-LC-KJ	1.13	1.02	0.997	0.912	0.715	0.67	0.475	0.711	0.516	0.441	0.497	0.579	0.489	1.15	1.11	1.18	1.16
SK-LU-1	0.391	0.41	0.394	0.369	0.742	0.846	0.757	0.855	0.262	0.324	0.301	0.397	0.381	0.323	0.399	0.385	0.335
SW 900		0.599	0.554	0.474		0.41	0.494	0.553			0.532	0.442	0.62	0.467	0.676	0.53	0.626

Source: the supplement of paper PMC10307832
